Measured values taken from patent publication US9113629B2, “4-amino-6-(4-substituted-phenyl)-picolinates and 6-amino-2-(4-substituted-phenyl)-pyrimidine-4-carboxylates and their use as herbicides” (DOW AGROSCIENCES LLC, priority 2013, dated 2015).
Like-named read-outs stand apart in the source and are kept apart here.

How the values were obtained:
Type in all cases: in vivo
[1] = system: AMARE: redroot pigwseed (Amaranthus retroflexus); assay: Post-emergent Test I herbicidal activity; details: post-emergence, read-out: Visual Growth Reduction (%), AMARE; for pest or weed control at 4000 g/ha: 4 kg ai/ha; for pest or weed control at 4040 g/ha: 4.04 kg ai/ha; for pest or weed control at 3840 g/ha: 3.84 kg ai/ha
Experimental: (§1) Post-emergent Test I Seeds test species were obtained from commercial suppliers and planted into a 13 cm diameter-round pot containing soil-less media mix (metro-mix 360®, Sun Gro Horticulture). Postemergence treatments were planted 8-12 days prior to application and cultured in a greenhouse equipped with supplemental light sources to provide a 16 h photoperiod at 24-29° C. All pots were surface irrigated.
(§2) A weighted amount, determined by the highest rate to be tested, of each compound was dissolved in 1.3 mL acetone-DMSO (97:3, v/v) and diluted with 4.1 mL water-isopropanol-crop oil concentrate (78:20:2, v/v/v) containing 0.02% Triton X-155 to obtain concentrated stock solutions. Additional application rates were obtained by serial dilution of the high rate solution into a solution containing appropriate volume of 97:3 v/v mixture of acetone and DMSO and appropriate volume of an aqueous mixture of water, isopropyl alcohol, crop oil concentrate (78:20:2, v/v/v) containing 0.02% Triton X-155.
(§3) Formulated compounds were applied using a DeVilbiss® compressed air sprayer at 2-4 psi. Following treatment, pots were returned to the greenhouse for the duration of the experiment. All pots were sub-irrigated as need to provide optimum growing conditions. All pots were fertilized one time per week by subirrigating with Peters Peat-Lite Special® fertilizer (20-10-20).
(§4) […] All evaluations were made visually on a scale of 0 to 100 where 0 represents no activity and 100 represents complete plant death. Visual assessments of plant injury were made based on growth reduction, discoloration, leaf deformity and necrosis.

[2] = system: AVEFA: wild oats (Avena fatua); assay: Post-emergent Test I herbicidal activity; details: post-emergence, 336 h, read-out: Visual Growth Reduction (%) 14 Days After Application, AVEFA; for pest or weed control at 4000 g/ha: 4 kg ai/ha; for pest or weed control at 4040 g/ha: 4.04 kg ai/ha; for pest or weed control at 3840 g/ha: 3.84 kg ai/ha
Experimental: as §1, §2, §3, §4

[3] = system: ECHCG: barnyardgrass (Echinochloa crus-galli); assay: Post-emergent Test I herbicidal activity; details: post-emergence, 336 h, read-out: Visual Growth Reduction (%) 14 Days After Application, ECHCG; for pest or weed control at 4000 g/ha: 4 kg ai/ha; for pest or weed control at 4040 g/ha: 4.04 kg ai/ha; for pest or weed control at 3840 g/ha: 3.84 kg ai/ha
Experimental: as §1, §2, §3, §4

[4] = system: HELAN: sunflower (Helianthus annuus); assay: Post-emergent Test I herbicidal activity; details: post-emergence, 336 h, read-out: Visual Growth Reduction (%) 14 Days After Application, HELAN; for pest or weed control at 4000 g/ha: 4 kg ai/ha; for pest or weed control at 4040 g/ha: 4.04 kg ai/ha; for pest or weed control at 3840 g/ha: 3.84 kg ai/ha
Experimental: as §1, §2, §3, §4

[5] = system: IPOHE: ivyleaf morningglory (Ipomoea hederecea); assay: Post-emergent Test I herbicidal activity; details: post-emergence, 336 h, read-out: Visual Growth Reduction (%) 14 Days After Application, IPOHE; for pest or weed control at 4000 g/ha: 4 kg ai/ha; for pest or weed control at 4040 g/ha: 4.04 kg ai/ha; for pest or weed control at 3840 g/ha: 3.84 kg ai/ha
Experimental: as §1, §2, §3, §4

[6] = system: SETFA: giant foxtail (Setaria faberi); assay: Post-emergent Test I herbicidal activity; details: post-emergence, 336 h, read-out: Visual Growth Reduction (%) 14 Days After Application, SETFA; for pest or weed control at 4000 g/ha: 4 kg ai/ha; for pest or weed control at 4040 g/ha: 4.04 kg ai/ha; for pest or weed control at 3840 g/ha: 3.84 kg ai/ha
Experimental: as §1, §2, §3, §4

[7] = system: BROTE: downy brome (Bromus tectorum); assay: Post-emergent Test III, herbicidal activity in wheat and barley; details: for pest or weed control at 35 g/ha / pest or weed control at 70 g/ha / pest or weed control at 140 g/ha: Bromus tectorum, post-emergence, 504 h, read-out: Visual Growth Reduction (%) 21 Days After Application BROTE; for pest or weed control at 35 g/ha: 35 g ai/ha; for pest or weed control at 70 g/ha: 70 g ai/ha; for pest or weed control at 140 g/ha: 140 g ai/ha; for GR50 BROTE / GR80 BROTE: probit analysis, 21 days after application; for GR50 BROTE: dose for growth reduction of 50 percent; for GR80 BROTE: dose for growth reduction of 80 percent
In short: (§5)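 GR20, GR50, GR80 and GR90 come from probit analysis of visual injury scores (0 = none, 100 = complete kill) taken 21 d after treatment. Foliar application was by track sprayer delivering 187 L/ha at five rates, from high down to 1/16×, onto greenhouse plants at the 2–3 leaf stage, with solvent-blank controls.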

[8] = system: PAPRH: common poppy (Papaver rhoeas); assay: as above; details: for pest or weed control at 35 g/ha / pest or weed control at 70 g/ha / pest or weed control at 140 g/ha: Papaver rhoeas, post-emergence, 504 h, read-out: Visual Growth Reduction (%) 21 Days After Application PAPRH; for pest or weed control at 35 g/ha: 35 g ai/ha; for pest or weed control at 70 g/ha: 70 g ai/ha; for pest or weed control at 140 g/ha: 140 g ai/ha; for GR50 PAPRH / GR80 PAPRH: probit analysis
In short: as §5

[9] = dose for growth reduction of 50 percent, 21 days after application
[10] = dose for growth reduction of 80 percent, 21 days after application

COC(=O)c1nc(-c2ccc(Br)cc2)c(F)c(N)c1Cl [Compound 138, Methyl 4-amino-6-(4-bromophenyl)-3-chloro-5-fluoropicolinate]
pest or weed control at 4000 g/ha [1]: 95 to 100%
pest or weed control at 4000 g/ha [2]: 75 to 84%
pest or weed control at 4000 g/ha [3]: 95 to 100%
pest or weed control at 4000 g/ha [4]: 95 to 100%
pest or weed control at 4000 g/ha [5]: 95 to 100%
pest or weed control at 4000 g/ha [6]: 95 to 100%
pest or weed control at 35 g/ha [7]: 75 to 84%
pest or weed control at 70 g/ha [7]: 85 to 94%
pest or weed control at 140 g/ha [7]: 85 to 94%
GR50 BROTE [7]: 12 g ai/ha
GR80 BROTE [7]: 42 g ai/ha
pest or weed control at 35 g/ha [8]: 95 to 100%
pest or weed control at 70 g/ha [8]: 95 to 100%
pest or weed control at 140 g/ha [8]: 95 to 100%
GR50 PAPRH [8, 9]: 1 g ai/ha
GR80 PAPRH [8, 10]: 1 g ai/ha

COC(=O)c1nc(-c2ccc(C#N)c(F)c2)c(F)c(N)c1Cl [Compound 135, methyl 4-amino-3-chloro-6-(4-cyano-3-fluorophenyl)-5-fluoropicolinate]
pest or weed control at 4040 g/ha [1]: 95 to 100%
pest or weed control at 4040 g/ha [2]: 60 to 74%
pest or weed control at 4040 g/ha [3]: 95 to 100%
pest or weed control at 4040 g/ha [4]: 95 to 100%
pest or weed control at 4040 g/ha [5]: 85 to 94%
pest or weed control at 4040 g/ha [6]: 75 to 84%
pest or weed control at 35 g/ha ([8]; Table 8, post-emergent, 21 d): 85 to 94%
pest or weed control at 70 g/ha ([8]; Table 8, post-emergent, 21 d): 85 to 94%
pest or weed control at 140 g/ha ([8]; Table 8, post-emergent, 21 d): 95 to 100%
GR50 PAPRH ([8]; Table 8, dose for 50 percent growth reduction, 21 d): 1 g ai/ha
GR80 PAPRH ([8]; Table 8, dose for 80 percent growth reduction, 21 d): 1 g ai/ha

N#Cc1ccc(-c2nc(C(=O)O)c(Cl)c(N)c2F)cc1 [Compound 39]
pest or weed control at 2000 g/ha ([1]; 2 kg ai/ha): 95 to 100%
pest or weed control at 2000 g/ha ([2]; 2 kg ai/ha): 75 to 84%
pest or weed control at 2000 g/ha ([3]; 2 kg ai/ha): 85 to 94%
pest or weed control at 2000 g/ha ([4]; 2 kg ai/ha): 95 to 100%
pest or weed control at 2000 g/ha ([5]; 2 kg ai/ha): 60 to 74%
pest or weed control at 35 g/ha [7]: 0 to 29%
pest or weed control at 70 g/ha [7]: 0 to 29%
pest or weed control at 140 g/ha [7]: 0 to 29%
pest or weed control at 35 g/ha [8]: 95 to 100%
pest or weed control at 70 g/ha [8]: 95 to 100%
pest or weed control at 140 g/ha [8]: 95 to 100%
GR50 PAPRH [8, 9]: 0 g ai/ha
GR80 PAPRH [8, 10]: 0 g ai/ha

COC(=O)c1nc(-c2ccc(C#N)cc2F)cc(N)c1Cl [Compound 16]
pest or weed control at 3840 g/ha [1]: 95 to 100%
pest or weed control at 3840 g/ha [2]: 0 to 29%
pest or weed control at 3840 g/ha [3]: 45 to 59%
pest or weed control at 3840 g/ha [4]: 95 to 100%
pest or weed control at 3840 g/ha [5]: 95 to 100%
pest or weed control at 3840 g/ha [6]: 60 to 74%

COC(=O)c1nc(-c2ccc(C(F)F)cc2)c(F)c(N)c1Cl [Compound 209]
pest or weed control at 4000 g/ha [1]: 95 to 100%
pest or weed control at 4000 g/ha [2]: 85 to 94%
pest or weed control at 4000 g/ha [3]: 95 to 100%
pest or weed control at 4000 g/ha [4]: 95 to 100%
pest or weed control at 4000 g/ha [5]: 85 to 94%
pest or weed control at 4000 g/ha [6]: 95 to 100%
pest or weed control at 35 g/ha [7]: 0 to 29%
pest or weed control at 70 g/ha [7]: 30 to 44%
GR50 BROTE [7]: 88 g ai/ha
GR80 BROTE [7]: >140 g ai/ha

Nc1c(F)c(-c2ccc(Br)c(F)c2F)nc(C(=O)O)c1Cl [Compound 147]
pest or weed control at 3960 g/ha ([1]; 3.96 kg ai/ha): 95 to 100%
pest or weed control at 3960 g/ha ([2]; 3.96 kg ai/ha): 75 to 84%
pest or weed control at 3960 g/ha ([3]; 3.96 kg ai/ha): 95 to 100%
pest or weed control at 3960 g/ha ([4]; 3.96 kg ai/ha): 95 to 100%
pest or weed control at 3960 g/ha ([5]; 3.96 kg ai/ha): 95 to 100%
pest or weed control at 3960 g/ha ([6]; 3.96 kg ai/ha): 95 to 100%
pest or weed control at 35 g/ha [7]: 75 to 84%
pest or weed control at 70 g/ha [7]: 85 to 94%
pest or weed control at 140 g/ha [7]: 85 to 94%
GR50 BROTE [7]: 6 g ai/ha
GR80 BROTE [7]: 28 g ai/ha

COC(=O)c1nc(-c2ccccc2)c(F)c(N)c1Cl [Compound 181]
pest or weed control at 1760 g/ha ([1]; 1.76 kg ai/ha): 95 to 100%
pest or weed control at 1760 g/ha ([2]; 1.76 kg ai/ha): 0 to 29%
pest or weed control at 1760 g/ha ([3]; 1.76 kg ai/ha): 0 to 29%
pest or weed control at 1760 g/ha ([4]; 1.76 kg ai/ha): 95 to 100%
pest or weed control at 1760 g/ha ([5]; 1.76 kg ai/ha): 75 to 84%
pest or weed control at 1760 g/ha ([6]; 1.76 kg ai/ha): 0 to 29%

COC(=O)c1nc(-c2ccc(C(F)F)c(F)c2)cc(N)c1Cl [Compound 196]
pest or weed control at 3840 g/ha [1]: 95 to 100%
pest or weed control at 3840 g/ha [2]: 60 to 74%
pest or weed control at 3840 g/ha [3]: 95 to 100%
pest or weed control at 3840 g/ha [4]: 95 to 100%
pest or weed control at 3840 g/ha [5]: 85 to 94%
pest or weed control at 3840 g/ha [6]: 95 to 100%

N#Cc1ccc(-c2nc(C(=O)O)c(Cl)c(N)c2F)cc1F [Compound 156]
pest or weed control at 4040 g/ha [1]: 95 to 100%
pest or weed control at 4040 g/ha [2]: 75 to 84%
pest or weed control at 4040 g/ha [3]: 95 to 100%
pest or weed control at 4040 g/ha [4]: 95 to 100%
pest or weed control at 4040 g/ha [5]: 95 to 100%
pest or weed control at 4040 g/ha [6]: 85 to 94%
